Assay [1] has as its target CRAC ion channel (Rattus norvegicus, UniProt Q5M848). As to the kind of experiment: Patch clamp inhibition of ICRAC current in RBL cells. The conditions noted are these: whole-cell patch clamp, read-out: IC50 (concentration which inhibits 50% of the ICRAC current). The assay is classed as cell-based. Here is the method:
In general, a whole cell patch clamp method was used to examine the effects of a compound of the invention on a channel that mediates Icrac. In such experiments, a baseline measurement was established for a patched cell. Then a compound to be tested was perfused (or puffed) to cells in the external solution and the effect of the compound on Icrac was measured. A compound that modulates Icrac (e.g., inhibits) is a compound that is useful in the invention for modulating CRAC ion channel activity.
Rat basophilic leukemia cells (RBL-2H3) were grown in DMEM media supplemented with 10% fetal bovine serum in an atmosphere of 95% air/5% CO2. Cells were seeded on glass coverslips 1-3 days before use.
Membrane currents of individual cells were recorded using the whole-cell configuration of the patch clamp technique with an EPC10 (HEKA Electronik, Lambrecht, Germany). Electrodes (2-5 MO in resistance) were fashioned from borosilicate glass capillary tubes (Sutter Instruments, Novato, Ca). The recordings were done at room temperature.
Cs-Glutamate 120 mM; CsCl 20 mM; CsBAPTA 10 mM; CsHEPES 10 mM; NaCl 8 mM; MgCl2 1 mM; IP3 0.02 mM; pH=7.4 adjusted with CsOH. (Shielded from light and kept on ice before experiment)
NaCl 138 mM; NaHEPES, 10 mM; CsCl 10 mM; CaCl2 10 mM; Glucose 5.5 mM; KC1-5.4 mM; KH2PO4 0.4 mM; Na2HPO4H2 0.3 mM at pH=7.4 adjusted with NaOH.
Each compound was diluted from a 10 mM stock in series using DMSO (10 μM, 3.2 μM, […], 316 nM, 100 nM, 32 nM). The final DMSO concentration was always kept at 0.1%.
ICRAC currents were monitored every 2 seconds using a 50 msec protocol, where the voltage was ramped from −100 mV to +100 mV. The membrane potential was held at 0 mV between the test ramps. In a typical experiment the peak inward currents would develop within 50-100 seconds. […]
The ICRAC current level was determined by measuring the inward current amplitude at −80 mV of the voltage ramp in an off-line analysis using MATLAB. The ICRAC current inhibition for each concentration was calculated using peak amplitude in the beginning of the experiment from the same cell. […]

Assay [2] relates to CRAC ion channel. Put plainly: Patch clamp inhibition of ICRAC current in primary T cells. The assay is classed as cell-based. The conditions noted are these: primary human T cells, FIG. 1. Here is the method: Primary T cells were obtained from human whole blood samples by adding 100 μL of RosetteSep® human T cell enrichment cocktail to 2 mL of whole blood. The mixture was incubated for 20 minutes at room temperature, then diluted with an equal volume of PBS containing 2% FBS. The mixture was layered on top of RosetteSep® DM-L density medium and then centrifuged for 20 minutes at 1200 g at room temperature.
The enriched T cells were recovered from the plasma/density medium interface, then washed with PBS containing 2% FBS twice, and used in patch clamp experiments following the procedure described for RBL cells.
For orientation: In patch-clamp work, channel activity is measured electrically.

The subject of another assay is TNF-α production. Put plainly: TNF-α production upon PMA/ionomycin stimulation in whole blood from dosed cynomolgus monkeys. It is filed as in vivo. The conditions noted are these: cynomolgus monkey, IV 5 mg/kg, 4 hours after dosing, FIG. 4. The protocol:
(§1) 3 male non-naïve cynomolgus monkeys were fasted overnight prior to and for four (4) hours following each dose. Each monkey was given a single intravenous dose of the appropriate test compound followed by a 1 mL rinse of saline to flush the catheter. The dose was infused over one hour using calibrated syringe pumps. Following a one week washout, the same three monkeys were given a single oral gavage dose of the appropriate test compound dose formulation followed by a 10 mL flush with tap water. Following a second one week washout, the same three monkeys received a second oral dose of the appropriate test compound dose formulation followed by a 10 mL flush with tap water. Following a third one week washout, the same three monkeys received a third oral dose of the appropriate test compound dose formulation followed by a 10 mL flush with tap water. Prior to and at 1, 2, and 4 hours following each dose (measured from the start of dosing for IV doses), blood samples (3 mL/sample for Group 1 and 2 mL/sample for Groups 2 and 3) were drawn into tubes containing sodium heparin and stored at room temperature, and the concentration of the test compounds in each sample was measured. CsA was included as a positive control.

For assay [3], the system named is IL-2 production. Put plainly: IL-2 production upon PMA/ionomycin stimulation in whole blood from dosed cynomolgus monkeys. It is filed as in vivo. The conditions noted are these: cynomolgus monkey, IV 5 mg/kg, 4 hours after dosing, FIG. 3. The protocol: as §1
The test system of assay [4] is IL-2 production. As to the kind of experiment: Inhibition of IL-2 production in PHA-activated Jurkat cells (ELISA). The conditions noted are these: Homo sapiens, 20 h. It is filed as cell-based. The protocol: Jurkat cells were placed in a 96 well plate (0.5 million cells per well in 1% FBS medium) then test compounds of this invention were added at different concentrations. After 10 minutes, the cells were activated with PHA (final concentration 2.5 μg/mL) and incubated for 20 hours at 37° C. under CO2. The final volume was 200 μL. Following incubation, the cells were centrifuged and the supernatants collected and stored at −70° C. prior to assaying for IL-2 production. A commercial ELISA kit (IL-2 Eli-pair, Diaclone Research, Besancon, France) was used to detect production of IL-2, from which dose response curves were obtained. The IC50 value was calculated as the concentration at which 50% of maximum IL-2 production after stimulation was inhibited versus a non-stimulation control.
On the technique in general: ELISA stands for enzyme-linked immunosorbent assay.

CRAC ion channel (Rattus norvegicus, UniProt Q5M848), sequence (Q5M848 whole entry, the tested form may be a part): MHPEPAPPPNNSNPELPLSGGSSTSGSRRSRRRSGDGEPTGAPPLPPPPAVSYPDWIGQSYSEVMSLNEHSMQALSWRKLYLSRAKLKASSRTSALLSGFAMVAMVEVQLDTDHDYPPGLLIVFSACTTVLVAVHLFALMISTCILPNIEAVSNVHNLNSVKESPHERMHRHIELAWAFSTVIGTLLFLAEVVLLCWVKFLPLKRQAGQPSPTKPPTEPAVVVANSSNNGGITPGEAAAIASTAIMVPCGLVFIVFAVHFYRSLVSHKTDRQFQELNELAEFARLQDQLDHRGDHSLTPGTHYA
CRAC ion channel (Rattus norvegicus, UniProt Q5M848), sequence (P84903 23-685, further chain): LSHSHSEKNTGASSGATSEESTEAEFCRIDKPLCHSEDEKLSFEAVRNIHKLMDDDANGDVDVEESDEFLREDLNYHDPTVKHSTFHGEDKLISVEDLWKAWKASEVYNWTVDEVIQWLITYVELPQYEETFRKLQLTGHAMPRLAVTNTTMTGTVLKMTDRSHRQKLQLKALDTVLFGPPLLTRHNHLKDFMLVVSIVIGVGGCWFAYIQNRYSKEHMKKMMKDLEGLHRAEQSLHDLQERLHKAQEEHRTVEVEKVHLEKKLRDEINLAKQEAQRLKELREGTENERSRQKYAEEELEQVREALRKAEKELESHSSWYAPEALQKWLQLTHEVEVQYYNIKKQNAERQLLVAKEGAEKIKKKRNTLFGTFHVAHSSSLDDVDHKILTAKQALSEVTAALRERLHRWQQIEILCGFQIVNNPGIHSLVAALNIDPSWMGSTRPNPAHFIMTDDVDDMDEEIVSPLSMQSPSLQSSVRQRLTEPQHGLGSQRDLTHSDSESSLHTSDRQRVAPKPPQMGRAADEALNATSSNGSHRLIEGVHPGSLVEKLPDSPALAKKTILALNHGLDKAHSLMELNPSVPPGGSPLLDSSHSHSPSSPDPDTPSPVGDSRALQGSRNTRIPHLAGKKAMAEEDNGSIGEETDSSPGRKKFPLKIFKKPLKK

For the compound `Cc1nnsc1C(=O)Nc1ccc(-c2cc(C(F)(F)F)ccc2Cl)cc1` [Compound 27, 4-Methyl-[1,2,3]thiadiazole-5-carboxylic acid (2′-chloro-5′-trifluoromethyl-biphenyl-4-yl)-amide], the IC50 on CRAC ion channel [1] was found to be 400 nM.
Take `COc1ccc(OC)c(-c2ccc(NC(=O)c3cccc(F)c3F)cc2)c1` [Compound 31, N-(2′,5′-Dimethoxy-biphenyl-4-yl)-2,3-difluoro-benzamide]: the IC50 at CRAC ion channel [1] is 100 nM. Moreover, the “inhibition of ICRAC current in primary T cells compared with RBL cells” value in the assay with CRAC ion channel [2] was “inhibits ICRAC current equally well in primary T cells as in RBL cells”. For the same compound, the “TNF-α production after IV infusion” value in the assay with TNF-α production is “significantly inhibit”. Further, in the assay on IL-2 production [3], the “IL-2 production after IV infusion” value was “significantly inhibit”.
With `COc1ccc(C)cc1-c1ccc(NC(=O)c2cccc(F)c2F)cc1` [Compound 46, N-(2′-methoxy-5′-methyl-biphenyl-4-yl)-2,3-difluorobenzamide], the IC50 in the assay with IL-2 production [4] (bins in nM) is less than 100 nM.
The same measure, in the same setting: then `Cc1nocc1C(=O)Nc1ccc(-c2cc(C(F)(F)F)ccc2C(F)(F)F)cc1` [Compound 48, 3-methylisoxazole-4-carboxylic acid (2′,5′-bis-trifluoromethyl-biphenyl-4-yl)-amide], with 100 to 500 nM.
Turning to `O=C(Nc1ccc(-c2cc(C(F)(F)F)ccc2C(F)(F)F)cc1)c1ccnc2ccccc12` [Compound 57, quinoline-4-carboxylic acid (2′,5′-bis-trifluoromethyl-biphenyl-4-yl)-amide], in the assay with IL-2 production [4] (bin printed with mixed units nM and μM), the IC50 was 500 to 1000 nM.
With `COc1ccc(Cl)cc1-c1ccc(NC(=O)c2cc(F)c(F)cc2F)cc1` [Compound 84, N-(2′-methoxy-5′-chloro-biphenyl-4-yl)-2,4,5-trifluorobenzamide], the IC50 at CRAC ion channel [1] worked out at 300 nM.

For the origin of these results see patent US20150005320A9, “COMPOUNDS FOR INFLAMMATION AND IMMUNE-RELATED USES” (Synta Pharmaceuticals Corp., priority 2003, published 2015).
